# Molecular target: T1, HIV-integrase (Human immunodeficiency virus type 1 group M subtype B, UniProt P12497)
# T1 construct: Recombinant integrase (0.26 ng) was incubated with the beads
# Test: HIV-Integrase Inhibition Activity (SPA bead strand transfer assay)
# Assay type: biochemical
# Details: recombinant integrase, biotin labeled substrate DNA on SPA beads, P33 labeled target DNA
# Description: HIV-Integrase InhibitionActivity. To evaluate in-vitro activity against HIV-integrase, 5 pmole of biotin labeled substrate DNA was bound to 100 μg of Streptavidin coated PVT SPA beads (Amersham Pharmacia Biotech). Recombinant integrase (0.26 ng) was incubated with the beads for 90 min at 37° C. Unbound enzyme was removed by washing the complex followed by addition of inhibitors and 0.1 fmol of P33 labeled target DNA. The reaction was stopped by adding EDTA to a final concentration of 10 mM. Samples were counted in TopCountNXT (Packard) and the CPM was used as a measure of integration. The reaction condition was as described in A. Engelman and R. Craigie, J. Virol 69, 5908–5911 (1995). The sequences of substrate and target DNA were described in Nucleic Acid Research 22, 1121–1122 (1994).
row,Compound,IC50
1,"O=C(NCc1ccc(F)cc1)c1nc2n(c(=O)c1O)CCC=C2c1ccccc1 [Example 8, N-(4-Fluorobenzyl)-3-hydroxy-4-oxo-9-phenyl-6,7-dihydro-4H-pyrido[1,2-a]pyrimidine-2-carboxamide]",2 to 9 nM
2,"CC1(C)CCCn2c1nc(C(=O)NCc1ccc(F)cc1-n1cncn1)c(O)c2=O [Example 6, N-(4-Fluoro-2-(1H-1,2,4-triazol-1-yl)benzyl)-3-hydroxy-9,9-dimethyl-4-oxo-6,7,8,9-tetrahydro-4H-pyrido[1,2-a]pyrimidine-2-carboxamide]",2 to 9 nM
3,"O=C(NCc1ccc(F)cc1)c1nc2n(c(=O)c1O)CCC=C2c1cccnc1 [Example 10, N-(4-Fluorobenzyl)-3-hydroxy-4-oxo-9-(pyridin-3-yl)-6,7-dihydro-4H-pyrido[1,2-a]pyrimidine-2-carboxamide]",2 to 9 nM
4,"CC1(C)CCCCn2c1nc(C(=O)NCc1ccc(F)cc1-n1cncn1)c(O)c2=O [Example 13, N-(4-Fluoro-2-(1H-1,2,4-triazol-1-yl)benzyl)-3-hydroxy-10,10-dimethyl-4-oxo-4,6,7,8,9,10-hexahydropyrimido[1,2-a]azepine-2-carboxamide]",2 to 9 nM
5,"CC1(C)CCCCn2c1nc(C(=O)NCc1ccc(F)cc1)c(O)c2=O [Example 12, N-(4-Fluorobenzyl)-3-hydroxy-10,10-dimethyl-4-oxo-4,6,7,8,9,10-hexahydropyrimido[1,2-a]azepine-2-carboxamide]",2 to 9 nM
6,"CC1(C)CCn2c1nc(C(=O)NCc1ccc(F)cc1)c(O)c2=O [Example 1, N-(4-Fluorobenzyl)-3-hydroxy-8,8-dimethyl-4-oxo-4,6,7,8-tetrahydropyrrolo[1,2-a]pyrimidine-2-carboxamide]",2 to 9 nM
7,"CNC(=O)c1cc(F)ccc1CNC(=O)c1nc2n(c(=O)c1O)CCC2(C)C [Example 2, N-(4-Fluoro-2-(methylcarbamoyl)benzyl)-3-hydroxy-8,8-dimethyl-4-oxo-4,6,7,8-tetrahydropyrrolo[1,2-a]pyrimidine-2-carboxamide]",10 to 49000 nM
8,"CC1(C)CCCn2c1nc(C(=O)NCc1ccc(F)cc1)c(O)c2=O [Example 4, 3-Hydroxy-9,9-dimethyl-4-oxo-6,7,8,9-tetrahydro-4H-pyrido[1,2-a]pyrimidine-2-carboxylic acid 4-fluoro-benzylamide]",2 to 9 nM
9,"CC1(C)CCn2c1nc(C(=O)NCc1ccc(F)cc1-n1cncn1)c(O)c2=O [Example 3, N-(4-fluoro-2-(1H-1,2,4-triazol-1-yl)benzyl)-3-hydroxy-8,8-dimethyl-4-oxo-4,6,7,8-tetrahydropyrrolo[1,2-a]pyrimidine-2-carboxamide]",2 to 9 nM
10,"CNC(=O)c1cc(F)ccc1CNC(=O)c1nc2n(c(=O)c1O)CCCC2(C)C [Example 5, N-(4-Fluoro-2-(methylcarbamoyl)benzyl)-3-hydroxy-9,9-dimethyl-4-oxo-6,7,8,9-tetrahydro-4H-pyrido[1,2-a]pyrimidine-2-carboxamide]",2 to 9 nM
11,"O=C(NCc1ccc(Cl)c(Cl)c1)c1nc2n(c(=O)c1O)CCC=C2c1ccccc1 [Example 7, N-(3,4-Dichlorobenzyl)-3-hydroxy-4-oxo-9-phenyl-6,7-dihydro-4H-pyrido[1,2-a]pyrimidine-2-carboxamide]",2 to 9 nM
12,"CNC(=O)c1cc(F)ccc1CNC(=O)c1nc2n(c(=O)c1O)CCC=C2c1ccccc1 [Example 9, N-(4-Fluoro-2-(methylcarbamoyl)benzyl)-3-hydroxy-4-oxo-9-phenyl-6,7-dihydro-4H-pyrido[1,2-a]pyrimidine-2-carboxamide]",2 to 9 nM
13,"CNC(=O)c1cc(F)ccc1CNC(=O)c1nc2n(c(=O)c1O)CCC=C2c1cccnc1 [Example 11, N-(4-Fluoro-2-(methylcarbamoyl)benzyl)-3-hydroxy-4-oxo-9-(pyridin-3-yl)-6,7-dihydro-4H-pyrido[1,2-a]pyrimidine-2-carboxamide]",2 to 9 nM

# Source: patent publication US7173022B2, “Bicyclic heterocycles as HIV integrase inhibitors” (priority 2004, dated 2007)
